# Test results taken from patent US12655116B2, “Substituted isophthalic acid diamides” (Bayer Aktiengesellschaft, priority 2020, dated 2026).
# Tests used:
# VIOTR [1] = experiment: Post-emergence herbicidal action against VIOTR; assay type: in vivo, Viola tricolor; conditions: Viola tricolor, 504 h, 80 g/ha
# Outline: (§1)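 Foliar application at one-leaf stage of formulated test compounds, aqueous spray at 600–800 l/ha with 0.2% wetting agent. Greenhouse, optimal conditions, ~3 weeks; damage scored visually in % relative to untreated plants.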
# SETVI [2] = experiment: Pre-emergence herbicidal action against SETVI; assay type: in vivo, Setaria viridis; conditions: Setaria viridis, 504 h
# Outline: (§2)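 Greenhouse pots of sandy loam held seeds covered with soil, onto which the compound was applied before emergence. An aqueous suspension or emulsion of WP or EC was used at 600 to 800 l/ha with 0.2% wetting agent. Percent damage was judged visually at 3 weeks.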
# HORMU [3] = experiment: Pre-emergence herbicidal action against HORMU; assay type: in vivo, Hordeum murinum; conditions: Hordeum murinum, 504 h, pre-emergence
# Outline: as §2
# AMARE [4] = experiment: Post-emergence herbicidal action against AMARE; assay type: in vivo, Amaranthus retroflexus; conditions: Amaranthus retroflexus, 504 h, visual assessment about 3 weeks after treatment, 100% = plants have died, 0% = like control plants
# Outline: as §1
# HORMU [5] = experiment: Post-emergence herbicidal action against HORMU; assay type: in vivo, Hordeum murinum; conditions: Hordeum murinum, 504 h
# Outline: as §1
# ABUTH [6] = experiment: Post-emergence herbicidal action against ABUTH; assay type: in vivo, Abutilon theophrasti; conditions: Abutilon theophrasti, 504 h, visual assessment about 3 weeks after treatment vs untreated controls
# Outline: as §1
# LOLRI [7] = experiment: Pre-emergence herbicidal action against LOLRI; assay type: in vivo, Lolium rigidum; conditions: Lolium rigidum, 504 h, 320 g/ha
# Outline: as §2
# LOLRI [8] = experiment: Post-emergence herbicidal action against LOLRI; assay type: in vivo, Lolium rigidum; conditions: Lolium rigidum, 504 h, dosage 80 g/ha
# Outline: as §1
# POLCO [9] = experiment: Pre-emergence herbicidal action against POLCO; assay type: in vivo, Polygonum convolvulus; conditions: Fallopia convolvulus, 504 h, dosage 320 g/ha
# Outline: as §2
# ALOMY [10] = experiment: Post-emergence herbicidal action against ALOMY; assay type: in vivo, Alopecurus myosuroides; conditions: Alopecurus myosuroides, 504 h, visual assessment about 3 weeks after treatment vs untreated controls
# Outline: as §1
# ECHCG [11] = experiment: Pre-emergence herbicidal action against ECHCG; assay type: in vivo, Echinochloa crus-galli; conditions: Echinochloa crus-galli, 504 h
# Outline: as §2
# VERPE [12] = experiment: Post-emergence herbicidal action against VERPE; assay type: in vivo, Veronica persica; conditions: Veronica persica, 504 h
# Outline: as §1
# POLCO [13] = experiment: Post-emergence herbicidal action against POLCO; assay type: in vivo, Polygonum convolvulus; conditions: Fallopia convolvulus, 504 h
# Outline: as §1
# ABUTH [14] = experiment: Pre-emergence herbicidal action against ABUTH; assay type: in vivo, Abutilon theophrasti; conditions: Abutilon theophrasti, 504 h
# Outline: as §2
# AMARE [15] = experiment: Pre-emergence herbicidal action against AMARE; assay type: in vivo, Amaranthus retroflexus; conditions: Amaranthus retroflexus, 504 h, 100% = plants have died, 0% = like control plants
# Outline: as §2
# AVEFA = experiment: Pre-emergence herbicidal action against AVEFA; assay type: in vivo, Avena fatua; conditions: Avena fatua, 504 h, pre-emergence
# Outline: as §2
# ALOMY [16] = experiment: Pre-emergence herbicidal action against ALOMY; assay type: in vivo, Alopecurus myosuroides; conditions: Alopecurus myosuroides, 504 h, pre-emergence
# Outline: as §2
# SETVI [17] = experiment: Post-emergence herbicidal action against SETVI; assay type: in vivo, Setaria viridis; conditions: Setaria viridis, 504 h, dosage 80 g/ha
# Outline: as §1
# VIOTR [18] = experiment: Pre-emergence herbicidal action against VIOTR; assay type: in vivo, Viola tricolor; conditions: Viola tricolor, 504 h
# Outline: as §2
# STEME = experiment: Pre-emergence herbicidal action against STEME; assay type: in vivo, Stellaria media; conditions: Stellaria media, 504 h
# Outline: as §2
# VERPE [19] = experiment: Pre-emergence herbicidal action against VERPE; assay type: in vivo, Veronica persica; conditions: Veronica persica, 504 h
# Outline: as §2
# ECHCG [20] = experiment: Post-emergence herbicidal action against ECHCG; assay type: in vivo, Echinochloa crus-galli; conditions: Echinochloa crus-galli, 504 h
# Outline: as §1
# [21] = 80 g/ha, scored visually after 3 weeks vs untreated controls (100% = plants have died, 0% = like control plants)
# [22] = 320 g/ha, scored visually after 3 weeks, 100% = plants have died, 0% = like control plants
compound,measurement,setting,value
CCNC(=O)c1c(C(F)F)ccc(C(=O)Nc2nnnn2CC)c1Cl [Example 2-148],pest or weed control at 80 g/ha,VIOTR [1],80%
same,pest or weed control at 80 g/ha,SETVI [2]; dosage 80 g/ha,100%
same,pest or weed control at 320 g/ha,SETVI [2]; dosage 320 g/ha,100%
same,pest or weed control at 80 g/ha,HORMU [3]; 80 g/ha,90%
same,pest or weed control at 320 g/ha,HORMU [3]; 320 g/ha,100%
same,pest or weed control at 20 g/ha,AMARE [4]; 20 g/ha,90%
same,pest or weed control at 80 g/ha,AMARE [4]; 80 g/ha,90%
same,pest or weed control at 20 g/ha,HORMU [5]; dosage 20 g/ha,80%
same,pest or weed control at 80 g/ha,HORMU [5]; dosage 80 g/ha,90%
same,pest or weed control at 20 g/ha,ABUTH [6]; dosage 20 g/ha,90%
same,pest or weed control at 80 g/ha,ABUTH [6]; dosage 80 g/ha,90%
same,pest or weed control at 320 g/ha,LOLRI [7],90%
same,pest or weed control at 80 g/ha,LOLRI [8],80%
same,pest or weed control at 320 g/ha,POLCO [9],100%
same,pest or weed control at 20 g/ha,ALOMY [10]; dosage 20 g/ha,80%
same,pest or weed control at 80 g/ha,ALOMY [10]; dosage 80 g/ha,90%
same,pest or weed control at 80 g/ha,ECHCG [11]; 80 g/ha,100%
same,pest or weed control at 320 g/ha,ECHCG [11]; 320 g/ha,100%
same,pest or weed control at 20 g/ha,VERPE [12]; 20 g/ha,80%
same,pest or weed control at 80 g/ha,VERPE [12]; 80 g/ha,90%
same,pest or weed control at 20 g/ha,POLCO [13]; dosage 20 g/ha,90%
same,pest or weed control at 80 g/ha,POLCO [13]; dosage 80 g/ha,90%
same,pest or weed control at 80 g/ha,ABUTH [14]; [21],100%
same,pest or weed control at 320 g/ha,"ABUTH [14]; Dosage: 320 g/ha, scored visually after 3 weeks, 100% = plants have died, 0% = like control plants",100%
same,pest or weed control at 80 g/ha,"AMARE [15]; 80 g/ha, scored visually after 3 weeks vs untreated controls",100%
same,pest or weed control at 320 g/ha,"AMARE [15]; 320 g/ha, scored visually after 3 weeks",100%
same,pest or weed control at 80 g/ha,AVEFA; 80 g/ha,100%
same,pest or weed control at 320 g/ha,AVEFA; [22],100%
same,pest or weed control at 80 g/ha,ALOMY [16]; [21],90%
same,pest or weed control at 320 g/ha,ALOMY [16]; [22],100%
same,pest or weed control at 80 g/ha,SETVI [17],80%
same,pest or weed control at 80 g/ha,VIOTR [18]; dosage 80 g/ha,100%
same,pest or weed control at 320 g/ha,VIOTR [18]; dosage 320 g/ha,100%
same,pest or weed control at 80 g/ha,STEME; dosage 80 g/ha,90%
same,pest or weed control at 320 g/ha,STEME; dosage 320 g/ha,100%
same,pest or weed control at 80 g/ha,VERPE [19]; dosage 80 g/ha,80%
same,pest or weed control at 320 g/ha,VERPE [19]; dosage 320 g/ha,100%
same,pest or weed control at 20 g/ha,ECHCG [20]; dosage 20 g/ha,80%
same,pest or weed control at 80 g/ha,ECHCG [20]; dosage 80 g/ha,90%
